Experimental data reported in paper PMC7367283, “A PIP2 substitute mediates voltage sensor-pore coupling in KCNQ activation” (Communications Biology, 2020).
Several values for one entry are separate records, joined by “and”; a condition that tells them apart may be missing. Identical values can stand only once.

Columns and labels:
Type in all cases: cell-based
KCNQ1 K354A/K358A = KCNQ1 K354A/K358A (Homo sapiens, UniProt P51787, K354A/K358A); assay: Two-electrode voltage clamp of mutant KCNQ1 in Xenopus oocytes
Source text: (§1) In a previous study, mutation of residues in the predicted PIP2-binding site reduced KCNQ1 currents. CP1 modifies voltage-dependent activation of KCNQ1 channels by shifting the voltage dependence of channel opening, measured as the voltage dependence of the conductance (G–V) relationship, to more negative voltages (Fig. 1c) among other characteristics (see below). We made mutations to the residues around the CP1-interacting pocket as indicated by molecular docking (Fig. 1b), and examined the effects of the mutations on the CP1-induced shift of the G–V relationship. The mutations of the KCNQ1 residues that interact with CP1 in docking simulations reduced the shift of the G–V relationship (Fig. 1c, d), supporting the interaction of these residues with CP1.
(§2) Complementary DNA (cDNA) encoding human KCNQ1 (UniProtKB/Swiss‐Prot under accession no. P51787), KCNQ2 (O43526), KCNQ3 (O43525), KCNE1 (P15382), Kir1.1 (P48048), hERG (Q12809), KV4.2 (Q63881), NaV1.5 (Q14524), NaV β1 (Q07699), CaV1.2 (Q13936), CaV β1a (Q02641), CaV α2/δ1 (P54289), and HCN4 (Q9Y3Q4) were subcloned into oocyte expression vectors, respectively. Site-directed mutations of the KCNQ1 channel were all produced by overlap extension polymerase chain reaction (PCR) with high-fidelity Pfu polymerase (Stratagene, CA). The presence of the desired mutation was verified by sequencing the PCR-amplified regions. All the primer sequences used in this study are available in Supplementary Table 1. The complementary RNA (cRNA) of all these channels and mutations was transcribed in vitro with the T3, T7, or SP6 polymerase mMessage mMachine kit (Invitrogen, Thermo Fisher Scientific, MO).
(§3) The use of Xenopus laevis to obtain oocytes was approved by the Washington University Animal Studies Committee (protocol #20190030). Oocytes were manually dispersed and digested with collagenase (0.5 mg/ml, Sigma-Aldrich, Saint Louis, MO) to remove the follicle cell layer. Stage V or VI oocytes were selected and injected with cRNAs (9.2 ng) of channel or mutations. Especially, to characterize IKs, a mix of cRNAs at a molar ratio 4:1 (KCNQ1:KCNE1) was injected. For KCNQ2/KCNQ3, the molar ratio was 1:1 (KCNQ2:KCNQ3). For sodium channels, a 3:1 molar ratio (β1:NaV1.5) and for calcium channels a weight ratio 1:1:1 (β1:α2/δ1:CaV1.2) was injected, respectively. Injected oocytes were incubated in ND96 solution containing (in mM) 96 NaCl, 2 KCl, 1.8 CaCl2, 1 MgCl2, and 5 HEPES, pH 7.6, supplemented with 2.5 mM Na pyruvate and 1% penicillin–streptomycin, at 18 °C for 3–7 days before recording.
(§4) The whole-oocyte ionic currents were recorded with a GeneClamp 500B amplifier (Axon Instruments, CA) or iTEV90 amplifier (HEKA, Germany) and then sampled at 1 kHz and low-pass-filtered at 2 kHz. The Patchmaster software (HEKA, Germany) was used to acquire data. The Kir1.1 current was recorded with a high K^+ bath solution containing (in mM) 96 KCl, 4 NaCl, 1 CaCl2, 2 MgCl2, and 10 HEPES, pH 7.3–7.4. The HCN4 current was recorded in ND66 solution containing (in mM) 66 NaCl, 32 KCl, 1.8 CaCl2, 1 MgCl2, and 5 HEPES, pH 7.6. All the other potassium channels were recorded in ND96 solution. The currents of CaV1.2 channel were recorded in 40 mM Ba^2+ bath solution containing (in mM) 40 Ba(OH)2, 50 TEA-OH, 2 KOH, and 5 HEPES, adjusted to pH 7.4 with methanesulfonic acid. CP1 (DISODIUM 5-BROMO-2-[9-CHLORO-3-(SULFONATOOXY) NAPHTHO [1,2-B] THIEN-2-YL]-1H-INDOL-3-YL SULFATE, Sigma-Aldrich, MO) and Chromanol 293B (Sigma-Aldrich, MO) were dissolved in bath solutions. All the chemicals were purchased from Sigma-Aldrich. To measure the I–V relations of the Kir1.1 channel, the test voltage was set from −100 to +60 mV for 1 s with 20-mV increments. The test pulses were stepped from a holding potential of 0 mV and then stepped back to 0 mV. The HCN4 currents were recorded by a test pulse between −30 and −140 mV in 10-mV step from a holding potential of −30 mV. […]

KCNQ1 R243A = KCNQ1 R243A (Homo sapiens, UniProt P51787, R243A); assay: as above; conditions: 10 µM CP1, individual oocytes
Source text: as §1, §2, §3, §4

KCNQ1 S253A = KCNQ1 S253A (Homo sapiens, UniProt P51787, S253A); assay: as above
Source text: as §1, §2, §3, §4

IKs (KCNQ1 + KCNE1) = IKs (KCNQ1 + KCNE1) (Homo sapiens, UniProt P51787); assay: IKs co-expressed with CiVSP (PIP2 depletion), two-electrode voltage clamp in Xenopus oocytes
Source text: We co-expressed KCNQ1 with the voltage-dependent lipid phosphatase CiVSP[44] in Xenopus oocytes and recorded KCNQ1 currents using two-electrode voltage clamp with consecutive depolarizing voltage pulses. […] To more directly test CP1 effects, we applied CP1 to the intracellular side of the inside-out membrane patch that expressed IKs channels.

O=S(=O)([O-])Oc1c(-c2sc3c(ccc4cccc(Cl)c43)c2OS(=O)(=O)[O-])[nH]c2ccc(Br)cc12.[Na+].[Na+] [CP1, DISODIUM 5-BROMO-2-[9-CHLORO-3-(SULFONATOOXY) NAPHTHO [1,2-B] THIEN-2-YL]-1H-INDOL-3-YL SULFATE] gave a G/Gmax (KCNQ1 K354A/K358A; 10 µM CP1, 0 mV) of 0.9071, a G/Gmax (KCNQ1 K354A/K358A; 10 µM CP1, 10 mV) of 0.9519 and a G/Gmax (KCNQ1 K354A/K358A; 10 µM CP1, 20 mV) of 0.9897. It also gave a G/Gmax (KCNQ1 K354A/K358A; 10 µM CP1, 30 mV) of 1.0000, a G/Gmax (KCNQ1 K354A/K358A; 10 µM CP1, -10 mV) of 0.8497 and a G/Gmax (KCNQ1 K354A/K358A; 10 µM CP1, -20 mV) of 0.7541. The G/Gmax (KCNQ1 K354A/K358A; 10 µM CP1, -30 mV) was 0.6165, the G/Gmax (KCNQ1 K354A/K358A; 10 µM CP1, -40 mV) was 0.4576 and the G/Gmax (KCNQ1 K354A/K358A; 10 µM CP1, -50 mV) was 0.3124. For the same molecule, the G/Gmax (KCNQ1 K354A/K358A; 10 µM CP1, -60 mV) was 0.2094, the G/Gmax (KCNQ1 K354A/K358A; 10 µM CP1, -70 mV) was 0.1390 and the G/Gmax (KCNQ1 K354A/K358A; 10 µM CP1, -80 mV) was 0.0950. For the same molecule, the G/Gmax (KCNQ1 K354A/K358A; 10 µM CP1, -90 mV) was 0.0670, the G/Gmax (KCNQ1 K354A/K358A; 10 µM CP1, -100 mV) was 0.0415 and the G/Gmax (KCNQ1 K354A/K358A; 10 µM CP1, -110 mV) was 0.0111. The G/Gmax (KCNQ1 K354A/K358A; 10 µM CP1, -120 mV) was 0.0033, the “∆V1/2” value (KCNQ1 K354A/K358A; 10 µM CP1, individual oocytes) was 24.6605 mV and 42.476 mV and 38.8398 mV and 35.894 mV and the “∆V1/2” value (KCNQ1 R243A) was 24.1172 mV and 49.8519 mV and 42.6967 mV and 36.2884 mV and 45.9483 mV and 47.7413 mV. The G/Gmax (KCNQ1 S253A; 10 µM CP1, -10 mV) was 1.0000, the G/Gmax (KCNQ1 S253A; 10 µM CP1, -20 mV) was 0.9987 and the G/Gmax (KCNQ1 S253A; 10 µM CP1, -30 mV) was 0.9693. The G/Gmax (KCNQ1 S253A; 10 µM CP1, -40 mV) was 0.9339, the G/Gmax (KCNQ1 S253A; 10 µM CP1, -50 mV) was 0.8910 and the G/Gmax (KCNQ1 S253A; 10 µM CP1, -60 mV) was 0.8327. For the same molecule, the G/Gmax (KCNQ1 S253A; 10 µM CP1, -70 mV) was 0.7485, the G/Gmax (KCNQ1 S253A; 10 µM CP1, -80 mV) was 0.6141 and the G/Gmax (KCNQ1 S253A; 10 µM CP1, -90 mV) was 0.4531. It also gave a G/Gmax (KCNQ1 S253A; 10 µM CP1, -100 mV) of 0.2784, a G/Gmax (KCNQ1 S253A; 10 µM CP1, -110 mV) of 0.1217 and a G/Gmax (KCNQ1 S253A; 10 µM CP1, -120 mV) of 0.0000. For the same molecule, the “∆V1/2” value (KCNQ1 S253A; 10 µM CP1, individual oocytes) was 62.813 mV and 60.7614 mV and 50.2508 mV and 66.8458 mV, the “IKs currents after PIP2 depletion” value (IKs (KCNQ1 + KCNE1); 10 µM CP1, extracellular perfusion, pulses to +60 mV) was “rescued IKs currents” and the membrane permeability (IKs (KCNQ1 + KCNE1); inferred from rescue by extracellular perfusion) was “membrane permeable”.
